Data: US10274488B2, “Glycan arrays on PTFE-like aluminum coated glass slides and related methods” (Academia Sinica, priority 2008, dated 2019)

Columns and labels:
cellulase from T. reesei = assay: Enzymatic hydrolysis on the PTFE-like ACG slide with cellulase from T. reesei, MS-TOF readout; type: biochemical, Trichoderma reesei; conditions: reaction on the ACG slide, pH 5
Protocol: (§1) Enzymatic hydrolysis of the immobilized poly-fluorinated cellobiose 8 (see FIG. 14) was first conducted in situ on the phosphonic acid slide surface. Three commercially available cellulases, Aspergillus niger (A. niger), Trichoderma reesei (T. reesei), and Trichoderma viride (T. viride) were prepared separately at 5 U/mL in a sodium acetate (25 mM) buffer solution (pH 5) and loaded onto the functionalized slide which has been divided into 16 wells using Fast Frame reaction chambers. For comparison, an aliquot of enzyme solution (100 μL) was added to the solution of fluorinated cellobiose (100 μL of 0.5 mM) in eppendorfs to carry out the enzymatic hydrolysis reactions in solution. After the reaction, it was transferred to the empty wells of the same slide. Each well was rinsed separately three times with de-ionized water and the slide was dried again under high vacuum before subjecting to MS-TOF analysis.
(§2) Under MS-TOF analysis, the clean background baseline allowed calculation of the percentage of hydrolyzed components for each sample. As shown in the MS-TOF results in FIG. 20, percentages of hydrolyzed products are calculated from the peak intensities of each spectrum. According to implementations of experimental data shown in FIG. 20, MS-TOF data of enzymatic hydrolysis of poly-fluorinated cellobiose in solution in FIG. 20A and immobilized on PTFE-like ACG slide in FIG. 20B. The control are the same experimental conditions run without enzymes in (a); (b), (c), and (d) are experimental conditions with the cellulase proteins from A. niger (b), T. reesei (c), and T. viride (d).
(§3) Cellulase was prepared (5 U/mL in 25 mM pH 5.05 NaOAc buffer solution). Substrate was also dissolved in NaOAc buffer solution (25 mM, pH 5.05) to give 0.5 mM substrate solution. Add 50 μL cellulase solution to 50 μL substrate solution onto the glass slide which was loaded in FAST® Frame multi-slide plate to have a 2.5 U/mL cellulase solution with 0.25 mM substrate. The well of the plate was sealed and the whole assembly was incubated in 37° C. for 18 hours. Put the slide in dry box to remove the water, and then use high vacuum to remove trace water. 100 uL water was used to rinse each well of the FAST® Frame multi-slide plate to solve and remove the salt of the buffer solution. Remove any residual water on the plate by high vacuum and then analyzed the slide by MALDI-TOF Ultra-Flex II.

cellulase from A. niger = assay: Enzymatic hydrolysis on the PTFE-like ACG slide with cellulase from A. niger, MS-TOF readout; type: biochemical, Aspergillus niger; conditions: reaction on the ACG slide
Protocol: as §1, §2, §3

cellulase from T. viride = assay: Enzymatic hydrolysis on the PTFE-like ACG slide with cellulase from T. viride, MS-TOF readout; type: biochemical, Trichoderma viride; conditions: reaction on the ACG slide, pH 5
Protocol: as §1, §2, §3

Q: `O=C(NCCCCCO[C@@H]1O[C@H](CO)[C@@H](O[C@@H]2O[C@H](CO)[C@@H](O)[C@H](O)[C@H]2O)[C@H](O)[C@H]1O)OCCCC(F)(F)C(F)(F)C(F)(F)C(F)(F)C(F)(F)C(F)(F)C(F)(F)C(F)(F)F` [Compound 8, [(4,4,5,5,6,6,7,7,8,8,9,9,10,10,11,11,12,12,12-nonadecafluorododecoxycarbonyl-amino)pentyl] ß-D-cellobioside] was tested. Which “Biose (un-hydrolyzed cellobiose), percentage of hydrolyzed pattern” value (“Biose … percentage of hydrolyzed pattern” below) (cellulase from T. reesei) did it give?
A: The value was 69%.

Q: And the “F-tail, percentage of hydrolyzed pattern” value (cellulase from T. reesei)?
A: Its value is 7%.

Q: What about the “Glucose, percentage of hydrolyzed pattern” value (“Glucose, percentage” for short) (cellulase from T. reesei) of the same molecule?
A: The value was 25%.

Q: And the “Triose, percentage of hydrolyzed pattern” value (cellulase from T. reesei)?
A: Its value is 0/0%.

Q: And the “Biose … percentage of hydrolyzed pattern” value (cellulase from A. niger; pH 5)?
A: The value was 1%.

Q: What about the “F-tail, percentage of hydrolyzed pattern” value (cellulase from A. niger; pH 5) of the same molecule?
A: The value was 0/0%.

Q: What about the “Glucose, percentage” value (cellulase from A. niger; pH 5) of the same molecule?
A: Its value is 0%.

Q: And the “Triose, percentage of hydrolyzed pattern” value (cellulase from A. niger; pH 5)?
A: Its value is 0%.

Q: What about the “Biose … percentage of hydrolyzed pattern” value (cellulase from A. niger; pH 5, listed as cellobiose) of the same molecule?
A: Its value is 100%.

Q: What about the “Biose … percentage of hydrolyzed pattern” value (cellulase from T. viride) of the same molecule?
A: Its value is 77%.

Q: What about the “F-tail, percentage of hydrolyzed pattern” value (cellulase from T. viride) of the same molecule?
A: Its value is 6%.

Q: And the “Glucose, percentage” value (cellulase from T. viride)?
A: The value was 17%.

Q: What about the “Triose, percentage of hydrolyzed pattern” value (cellulase from T. viride) of the same molecule?
A: Its value is 0/0%.
